From ChEMBL document CHEMBL1145783, “Development of an orexin-2 receptor selective agonist, [Ala(11), D-Leu(15)]orexin-B” (Bioorg Med Chem Lett, 2003)

Biological target: T1, Orexin receptor type 2 (Homo sapiens, UniProt O43614)
T1 sequence (O43614 whole entry): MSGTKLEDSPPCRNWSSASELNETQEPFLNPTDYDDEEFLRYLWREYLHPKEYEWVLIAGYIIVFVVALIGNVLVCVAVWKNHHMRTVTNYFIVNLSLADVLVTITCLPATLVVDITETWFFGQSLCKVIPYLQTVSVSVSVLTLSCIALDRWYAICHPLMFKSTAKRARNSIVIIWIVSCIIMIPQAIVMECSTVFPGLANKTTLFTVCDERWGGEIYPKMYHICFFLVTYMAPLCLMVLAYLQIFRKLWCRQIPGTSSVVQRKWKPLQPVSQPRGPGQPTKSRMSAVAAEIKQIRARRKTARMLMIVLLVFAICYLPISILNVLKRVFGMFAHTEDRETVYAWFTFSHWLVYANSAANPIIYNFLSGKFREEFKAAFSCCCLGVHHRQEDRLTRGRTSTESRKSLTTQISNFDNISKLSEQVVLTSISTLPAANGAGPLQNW
Test: Agonist activity against human orexin 2 receptor; EC50; nM
Assay type: functional

Compound | EC50
CC[C@H](C)[C@H](NC(=O)[C@H](CC(C)C)NC(=O)[C@@H](NC(=O)[C@@H](N)CCSC)[C@@H](C)O)C(=O)NCC(=O)N[C@@H](C)C(=O)N[C@@H](C)C(=O)N[C@@H](Cc1cnc[nH]1)C(=O)N[C@H](CC(N)=O)C(=O)NCC(=O)N[C@@H](CO)C(=O)N[C@@H](C)C(=O)N[C@@H](CCC(N)=O)C(=O)N[C@@H](CC(C)C)C(=O)N[C@@H](CC(C)C)C(=O)N[C@@H](CCCN=C(N)N)C(=O)N[C@@H](CCC(N)=O)C(=O)N[C@@H](CC(C)C)C(=O)N[C@@H](CCCN=C(N)N)C(=O)NCC(=O)N[C@@H](CCC(N)=O)C(=O)N[C@@H](CC(C)C)C(=O)NCC(=O)N1CCC[C@H]1C(=O)N1CCC[C@H]1C(=O)NCC(=O)N[C@@H](CO)C(=O)N[C@@H](CCCN=C(N)N)C(N)=O | 0.26 nM
H-MTLIGAAHAGSAQLLRQLRGQLGPPGSR-NH2 | 2.3 nM
CC[C@H](C)[C@H](NC(=O)[C@H](CC(C)C)NC(=O)[C@@H](NC(=O)[C@@H](N)CCSC)[C@@H](C)O)C(=O)NCC(=O)N[C@@H](C)C(=O)N[C@@H](C)C(=O)N[C@@H](Cc1cnc[nH]1)C(=O)N[C@@H](CC(N)=O)C(=O)NCC(=O)N[C@@H](CO)C(=O)N[C@@H](C)C(=O)N[C@@H](CCC(N)=O)C(=O)N[C@@H](CC(C)C)C(=O)N[C@H](CC(C)C)C(=O)N[C@@H](CCCN=C(N)N)C(=O)N[C@@H](CCC(N)=O)C(=O)N[C@@H](CC(C)C)C(=O)N[C@@H](CCCN=C(N)N)C(=O)NCC(=O)N[C@@H](CCC(N)=O)C(=O)N[C@@H](CC(C)C)C(=O)NCC(=O)N1CCC[C@H]1C(=O)N1CCC[C@H]1C(=O)NCC(=O)N[C@@H](CO)C(=O)N[C@@H](CCCN=C(N)N)C(N)=O | 0.44 nM
CC[C@H](C)[C@H](NC(=O)[C@H](CC(C)C)NC(=O)[C@@H](NC(=O)[C@@H](N)CCSC)[C@@H](C)O)C(=O)NCC(=O)N[C@@H](C)C(=O)N[C@@H](C)C(=O)N[C@@H](Cc1cnc[nH]1)C(=O)N[C@@H](CC(N)=O)C(=O)NCC(=O)N[C@@H](CO)C(=O)N[C@@H](C)C(=O)N[C@@H](CCC(N)=O)C(=O)N[C@@H](CC(C)C)C(=O)N[C@@H](CC(C)C)C(=O)N[C@H](CCCN=C(N)N)C(=O)N[C@@H](CCC(N)=O)C(=O)N[C@@H](CC(C)C)C(=O)N[C@@H](CCCN=C(N)N)C(=O)NCC(=O)N[C@@H](CCC(N)=O)C(=O)N[C@@H](CC(C)C)C(=O)NCC(=O)N1CCC[C@H]1C(=O)N1CCC[C@H]1C(=O)NCC(=O)N[C@@H](CO)C(=O)N[C@@H](CCCN=C(N)N)C(N)=O | 0.41 nM
CC[C@H](C)[C@H](NC(=O)[C@H](CC(C)C)NC(=O)[C@@H](NC(=O)[C@@H](N)CCSC)[C@@H](C)O)C(=O)N[C@H](C)C(=O)N[C@@H](C)C(=O)N[C@@H](C)C(=O)N[C@@H](Cc1cnc[nH]1)C(=O)N[C@@H](CC(N)=O)C(=O)NCC(=O)N[C@@H](CO)C(=O)N[C@@H](C)C(=O)N[C@@H](CCC(N)=O)C(=O)N[C@@H](CC(C)C)C(=O)N[C@@H](CC(C)C)C(=O)N[C@@H](CCCN=C(N)N)C(=O)N[C@@H](CCC(N)=O)C(=O)N[C@@H](CC(C)C)C(=O)N[C@@H](CCCN=C(N)N)C(=O)NCC(=O)N[C@@H](CCC(N)=O)C(=O)N[C@@H](CC(C)C)C(=O)NCC(=O)N1CCC[C@H]1C(=O)N1CCC[C@H]1C(=O)NCC(=O)N[C@@H](CO)C(=O)N[C@@H](CCCN=C(N)N)C(N)=O | 67 nM
CC[C@H](C)[C@H](NC(=O)[C@H](CC(C)C)NC(=O)[C@@H](NC(=O)[C@@H](N)CCSC)[C@@H](C)O)C(=O)NCC(=O)N[C@@H](C)C(=O)N[C@H](C)C(=O)N[C@@H](Cc1cnc[nH]1)C(=O)N[C@@H](CC(N)=O)C(=O)NCC(=O)N[C@@H](CO)C(=O)N[C@@H](C)C(=O)N[C@@H](CCC(N)=O)C(=O)N[C@@H](CC(C)C)C(=O)N[C@@H](CC(C)C)C(=O)N[C@@H](CCCN=C(N)N)C(=O)N[C@@H](CCC(N)=O)C(=O)N[C@@H](CC(C)C)C(=O)N[C@@H](CCCN=C(N)N)C(=O)NCC(=O)N[C@@H](CCC(N)=O)C(=O)N[C@@H](CC(C)C)C(=O)NCC(=O)N1CCC[C@H]1C(=O)N1CCC[C@H]1C(=O)NCC(=O)N[C@@H](CO)C(=O)N[C@@H](CCCN=C(N)N)C(N)=O | 2.6 nM
H-MTLIGAAHNGSAQLLRQLRGQLGPAGSR-NH2 | 0.23 nM
CC[C@H](C)[C@H](NC(=O)[C@H](CC(C)C)NC(=O)[C@H](NC(=O)[C@@H](N)CCSC)[C@@H](C)O)C(=O)NCC(=O)N[C@@H](C)C(=O)N[C@@H](C)C(=O)N[C@@H](Cc1cnc[nH]1)C(=O)N[C@@H](CC(N)=O)C(=O)NCC(=O)N[C@@H](CO)C(=O)N[C@@H](C)C(=O)N[C@@H](CCC(N)=O)C(=O)N[C@@H](CC(C)C)C(=O)N[C@@H](CC(C)C)C(=O)N[C@@H](CCCN=C(N)N)C(=O)N[C@@H](CCC(N)=O)C(=O)N[C@@H](CC(C)C)C(=O)N[C@@H](CCCN=C(N)N)C(=O)NCC(=O)N[C@@H](CCC(N)=O)C(=O)N[C@@H](CC(C)C)C(=O)NCC(=O)N1CCC[C@H]1C(=O)N1CCC[C@H]1C(=O)NCC(=O)N[C@@H](CO)C(=O)N[C@@H](CCCN=C(N)N)C(N)=O | > 260 nM
CC[C@H](C)[C@H](NC(=O)[C@H](CC(C)C)NC(=O)[C@@H](NC(=O)[C@@H](N)CCSC)[C@@H](C)O)C(=O)NCC(=O)N[C@@H](C)C(=O)N[C@@H](C)C(=O)N[C@@H](Cc1c[nH]cn1)C(=O)N[C@@H](CC(N)=O)C(=O)NCC(=O)N[C@@H](CO)C(=O)N[C@@H](C)C(=O)N[C@@H](CCC(N)=O)C(=O)N[C@@H](CC(C)C)C(=O)N[C@@H](CC(C)C)C(=O)N[C@@H](CCCN=C(N)N)C(=O)N[C@@H](CCC(N)=O)C(=O)N[C@@H](CC(C)C)C(=O)N[C@@H](CCCN=C(N)N)C(=O)NCC(=O)N[C@@H](CCC(N)=O)C(=O)N[C@@H](CC(C)C)C(=O)N[C@H](C)C(=O)N1CCC[C@H]1C(=O)N1CCC[C@H]1C(=O)NCC(=O)N[C@@H](CO)C(=O)N[C@@H](CCCN=C(N)N)C(N)=O | 0.2 nM

More lines, in order of falling EC50, values ahead:

EC50 | Compound
0.2 nM | CC[C@H](C)[C@H](NC(=O)[C@H](CC(C)C)NC(=O)[C@@H](NC(=O)[C@@H](N)CCSC)[C@@H](C)O)C(=O)NCC(=O)N[C@@H](C)C(=O)N[C@@H](C)C(=O)N[C@@H](Cc1c[nH]cn1)C(=O)N[C@@H](CC(N)=O)C(=O)NCC(=O)N[C@@H](CO)C(=O)N[C@@H](C)C(=O)N[C@@H](CCC(N)=O)C(=O)N[C@@H](CC(C)C)C(=O)N[C@@H](CC(C)C)C(=O)N[C@@H](CCCN=C(N)N)C(=O)N[C@@H](CCC(N)=O)C(=O)N[C@@H](CC(C)C)C(=O)N[C@@H](CCCN=C(N)N)C(=O)N[C@@H](C)C(=O)N[C@@H](CCC(N)=O)C(=O)N[C@@H](CC(C)C)C(=O)NCC(=O)N1CCC[C@H]1C(=O)N1CCC[C@H]1C(=O)NCC(=O)N[C@@H](CO)C(=O)N[C@@H](CCCN=C(N)N)C(N)=O
0.2 nM | H-MTLIGAAHNGSAQLLRQLRGQLGPPGSA-NH2
0.16 nM | CC[C@H](C)[C@H](NC(=O)[C@H](CC(C)C)NC(=O)[C@@H](NC(=O)[C@@H](N)CCSC)[C@@H](C)O)C(=O)NCC(=O)N[C@@H](C)C(=O)N[C@@H](C)C(=O)N[C@@H](Cc1c[nH]cn1)C(=O)N[C@@H](CC(N)=O)C(=O)NCC(=O)N[C@@H](CO)C(=O)N[C@@H](C)C(=O)N[C@@H](CCC(N)=O)C(=O)N[C@@H](CC(C)C)C(=O)N[C@@H](CC(C)C)C(=O)N[C@@H](CCCN=C(N)N)C(=O)N[C@@H](CCC(N)=O)C(=O)N[C@@H](CC(C)C)C(=O)N[C@@H](CCCN=C(N)N)C(=O)NCC(=O)N[C@@H](CCC(N)=O)C(=O)N[C@@H](CC(C)C)C(=O)NCC(=O)N1CCC[C@@H]1C(=O)N1CCC[C@H]1C(=O)NCC(=O)N[C@@H](CO)C(=O)N[C@@H](CCCN=C(N)N)C(N)=O
0.15 nM | CC[C@H](C)[C@H](NC(=O)[C@H](CC(C)C)NC(=O)[C@@H](NC(=O)[C@@H](N)CCSC)[C@@H](C)O)C(=O)NCC(=O)N[C@@H](C)C(=O)N[C@@H](C)C(=O)N[C@@H](Cc1c[nH]cn1)C(=O)N[C@@H](CC(N)=O)C(=O)NCC(=O)N[C@@H](CO)C(=O)N[C@@H](C)C(=O)N[C@@H](CCC(N)=O)C(=O)N[C@@H](CC(C)C)C(=O)N[C@@H](CC(C)C)C(=O)N[C@@H](CCCN=C(N)N)C(=O)N[C@@H](CCC(N)=O)C(=O)N[C@@H](CC(C)C)C(=O)N[C@@H](CCCN=C(N)N)C(=O)NCC(=O)N[C@@H](CCC(N)=O)C(=O)N[C@@H](CC(C)C)C(=O)NCC(=O)N1CCC[C@H]1C(=O)N1CCC[C@H]1C(=O)NCC(=O)N[C@H](CO)C(=O)N[C@@H](CCCN=C(N)N)C(N)=O
0.13 nM | H-MTLIGAAHNGSAQLLAQLRGQLGPPGSR-NH2
0.084 nM | CC[C@H](C)[C@H](NC(=O)[C@H](CC(C)C)NC(=O)[C@@H](NC(=O)[C@@H](N)CCSC)[C@@H](C)O)C(=O)NCC(=O)N[C@@H](C)C(=O)N[C@@H](C)C(=O)N[C@@H](Cc1c[nH]cn1)C(=O)N[C@@H](CC(N)=O)C(=O)NCC(=O)N[C@@H](CO)C(=O)N[C@@H](C)C(=O)N[C@@H](CCC(N)=O)C(=O)N[C@@H](CC(C)C)C(=O)N[C@@H](CC(C)C)C(=O)N[C@@H](CCCN=C(N)N)C(=O)N[C@@H](CCC(N)=O)C(=O)N[C@@H](CC(C)C)C(=O)N[C@@H](CCCN=C(N)N)C(=O)NCC(=O)N[C@@H](CCC(N)=O)C(=O)N[C@H](CC(C)C)C(=O)NCC(=O)N1CCC[C@H]1C(=O)N1CCC[C@H]1C(=O)NCC(=O)N[C@@H](CO)C(=O)N[C@@H](CCCN=C(N)N)C(N)=O
0.065 nM | H-MTLIGAAHNGSAQLARQLRGQLGPPGSR-NH2
0.052 nM | CC[C@H](C)[C@H](NC(=O)[C@H](CC(C)C)NC(=O)[C@@H](NC(=O)[C@@H](N)CCSC)[C@@H](C)O)C(=O)NCC(=O)N[C@@H](C)C(=O)N[C@@H](C)C(=O)N[C@@H](Cc1c[nH]cn1)C(=O)N[C@@H](CC(N)=O)C(=O)NCC(=O)N[C@@H](CO)C(=O)N[C@@H](C)C(=O)N[C@@H](CCC(N)=O)C(=O)N[C@H](CC(C)C)C(=O)N[C@@H](CC(C)C)C(=O)N[C@@H](CCCN=C(N)N)C(=O)N[C@@H](CCC(N)=O)C(=O)N[C@@H](CC(C)C)C(=O)N[C@@H](CCCN=C(N)N)C(=O)NCC(=O)N[C@@H](CCC(N)=O)C(=O)N[C@@H](CC(C)C)C(=O)NCC(=O)N1CCC[C@H]1C(=O)N1CCC[C@H]1C(=O)NCC(=O)N[C@@H](CO)C(=O)N[C@@H](CCCN=C(N)N)C(N)=O
